The values below come from patent publication US20230029066A1, “CRYSTAL FORMS OF FUSED RING COMPOUND, AND COMPOSITION THEREOF, PREPARATION METHOD THEREFOR AND APPLICATION THEREOF” (HANGZHOU YUSHENG MEDICAL TECHNOLOGY CO. LTD, priority 2019, published 2023).

What all share (type): physicochemical
A short description of data set [1]: Effect of crystal form on stability, high humidity test for 5 days (XRD). To be noted: room temperature, unsealed, desiccator with saturated potassium nitrate. As for the experimental part:
Evaluation on effect of crystal form on stability—high humidity test for 5 days
The amorphous form obtained in Example 11, crystal form IV obtained in Example 3, crystal form I obtained in Example 6, and crystal form II obtained in Example 8 were each taken 30 mg, in triplicate, put into a penicillin bottle, which is transferred, without being sealed, at room temperature into a desiccator with saturated potassium nitrate at the bottom, and the samples were taken after 5 days and tested by XRD.

Data set [2] is described as follows: Effect of crystal form on stability, high temperature test for 5 days (XRD). As to conditions: 60° C., unsealed. On the procedure:
Evaluation on effect of crystal form on stability—high temperature test for 5 days
The amorphous form obtained in Example 11, crystal form IV obtained in Example 3, crystal form I obtained in Example 6, and crystal form II obtained in Example 8 were each taken 30 mg, in triplicate, put into a penicillin bottle, which is transferred, without being sealed, to QG 2003 ba incubation and drying oven, of which the temperature was adjusted to 60° C. The samples were taken after 5 days and tested by XRD.

Data set [3] can be described thus: Solubility of crystal forms in different environments. From the text:
The solubilities (μg/mL) of crystal form I in different environments are shown in […]

Data set [4] is described as follows: Stability in solution within 24 hours.
Data set [5] is described as follows: Accelerated stability test for 30 days (XRD). As to conditions: 40° C., sealed bags. On the procedure:
Evaluation for accelerated stability of crystal forms I, II and IV
Crystal form IV obtained in Example 3, crystal form I obtained in Example 6, and crystal form II obtained in Example 8 were each taken 30 mg, in triplicate, put into sealed bags, which is transferred into BPN-80CH CO2 incubator, of which the temperature was set at 40° C. The samples were taken after 30 days and tested by XRD.

[6] abbreviates: Simulated fasting intestinal fluid (FaSSIF), R.T. (25° C.).
Setting [7] is: Simulated gastric fluid (SGF), 37° C.
The mark [8] stands for this setting: Simulated gastric fluid (SGF), R.T. (25° C.).
Where [9] appears, read: Simulated gastric fluid (SGF), Ultrasonic.
Where [10] appears, read: Simulated postprandial intestinal fluid (FeSSIF), 37° C.
Where [11] appears, read: Simulated postprandial intestinal fluid (FeSSIF), R.T. (25° C.).
The mark [12] stands for this setting: Simulated postprandial intestinal fluid (FeSSIF), Ultrasonic.
The mark [13] stands for this setting: pH 1.2 hydrochloric acid solution, 37° C.
Setting [14] is: pH 1.2 hydrochloric acid solution, R.T. (25° C.).
[15] abbreviates: pH 1.2 hydrochloric acid solution, Ultrasonic.
Setting [16] is: pH 4.5 acetic acid-sodium acetate solution, 75° C.
The mark [17] stands for this setting: pH 4.5 acetic acid-sodium acetate solution, R.T. (25° C.).
Setting [18] is: Simulated fasting intestinal fluid (FaSSIF).
[19] abbreviates: Simulated postprandial intestinal fluid (FeSSIF).
The mark [20] stands for this setting: pH 1.2 hydrochloric acid solution.
Where [21] appears, read: pH 4.5 acetic acid-sodium acetate solution.

Structures are written as SMILES. In brackets after ≈: the same amount, converted by molar mass. Entries after “also recorded” stand apart in the source; their conditions may differ. Where two headings read alike, the source gives them in different places.

As for `COc1ncc(-c2ccc3ncc(C#N)c(N4CCOC[C@H]4C)c3c2)cc1NS(C)(=O)=O` [amorphous form, (R)-N-(5-(3-cyano-4-(3-methylmorpholinyl)quinolin-6-yl)-2-methoxypyridin-3-yl)methanesulfonamide, reference compound], the “solid-form stability, change of XRD after high humidity test” value in data set [1] is given as “obvious crystal transformation; also recorded: significant crystal transformation”. The “solid-form stability, change of XRD after high temperature test” value in data set [2] is on record as “obvious crystal transformation; also recorded: significant crystal transformation”.
The term solubility denotes the dissolved amount per volume that the medium holds. Take `COc1ncc(-c2ccc3ncc(C#N)c(N4CCOC[C@H]4C)c3c2)cc1NS(C)(=O)=O` [crystal form I, (R)-N-(5-(3-cyano-4-(3-methylmorpholinyl)quinolin-6-yl)-2-methoxypyridin-3-yl)methanesulfonamide]: the solubility was 2.07 µg/mL (≈ 4.56 µM) in data set [3] (setting [6]); 167.38 µg/mL (≈ 369 µM) in data set [3] (setting [7]); 99.81 µg/mL (≈ 220 µM) in data set [3] (setting [8]); 119.65 µg/mL (≈ 264 µM) in data set [3] (setting [9]); 11.35 µg/mL (≈ 25 µM) in data set [3] (setting [10]); 8.09 µg/mL (≈ 17.8 µM) in data set [3] (setting [11]). The solubility in data set [3] (setting [12]) was 9.46 µg/mL (≈ 20.9 µM); in data set [3] (pH 1.2 hydrochloric acid solution, 75 °C, pH 1.2, simulated gastric fluid, thermodynamic from solid, pH 1.2 hydrochloric acid solution, 75° C., read-out: solubility), 868 µg/mL (≈ 1910 µM); in data set [3] (setting [13]), 404.30 µg/mL (≈ 891 µM); in data set [3] (setting [14]) it was 275.20 µg/mL (≈ 607 µM); in data set [3] (setting [15]), 294.60 µg/mL (≈ 650 µM); in data set [3] (pH 4.5 acetic acid-sodium acetate solution, 37 °C, pH 4.5, aqueous buffer, thermodynamic from solid, pH 4.5 acetic acid-sodium acetate solution, 37° C., read-out: solubility), 1.67 µg/mL (≈ 3.68 µM). Further, the solubility in data set [3] (pH 4.5 acetic acid-sodium acetate solution, pH 4.5, aqueous buffer, thermodynamic from solid, pH 4.5 acetic acid-sodium acetate solution, Ultrasonic, read-out: solubility) amounted to 1.56 µg/mL (≈ 3.44 µM); in data set [3] (setting [16]) it was 1.55 µg/mL (≈ 3.42 µM); in data set [3] (setting [17]) it was 1.29 µg/mL (≈ 2.84 µM); in data set [3] (pH 6.8 PBS solution, 25 °C, pH 6.8, aqueous buffer, thermodynamic from solid, pH 6.8 PBS solution, R.T. (25° C.), read-out: solubility), 3.58 µg/mL (≈ 7.89 µM); in data set [3] (pH 6.8 PBS solution, 37 °C, pH 6.8, aqueous buffer, thermodynamic from solid, pH 6.8 PBS solution, 37° C., read-out: solubility), 1.51 µg/mL (≈ 3.33 µM); in data set [3] (pH 6.8 PBS solution, 75 °C, pH 6.8, aqueous buffer, thermodynamic from solid, pH 6.8 PBS solution, 75° C., read-out: solubility), 1.41 µg/mL (≈ 3.11 µM). For the same compound, the solubility in data set [3] (pH 6.8 PBS solution, pH 6.8, aqueous buffer, thermodynamic from solid, pH 6.8 PBS solution, Ultrasonic, read-out: solubility) is 2.79 µg/mL (≈ 6.15 µM); in data set [3] (simulated fasting intestinal fluid (FaSSIF), 37 °C, fassif, thermodynamic from solid, Simulated fasting intestinal fluid (FaSSIF), 37° C., read-out: solubility) it was 2.87 µg/mL (≈ 6.33 µM); in data set [3] (simulated fasting intestinal fluid (FaSSIF), 75 °C, fassif, thermodynamic from solid, Simulated fasting intestinal fluid (FaSSIF), 75° C., read-out: solubility), 8.64 µg/mL (≈ 19.1 µM); in data set [3] (simulated fasting intestinal fluid (FaSSIF), fassif, thermodynamic from solid, Simulated fasting intestinal fluid (FaSSIF), Ultrasonic, read-out: solubility) it was 4.76 µg/mL (≈ 10.5 µM); in data set [3] (simulated gastric fluid (SGF), 75 °C, simulated gastric fluid, thermodynamic from solid, Simulated gastric fluid (SGF), 75° C., read-out: solubility) it was 432 µg/mL (≈ 952 µM); in data set [3] (simulated postprandial intestinal fluid (FeSSIF), 75 °C, fessif, thermodynamic from solid, Simulated postprandial intestinal fluid (FeSSIF), 75° C., read-out: solubility), 18.9 µg/mL (≈ 41.7 µM). Moreover, the solubility in data set [3] (water, 25 °C, water, thermodynamic from solid, Water, R.T. (25° C.), read-out: solubility) was determined as 3.84 µg/mL (≈ 8.47 µM); in data set [3] (water, 37 °C, water, thermodynamic from solid, Water, 37° C., read-out: solubility), 3.87 µg/mL (≈ 8.53 µM); in data set [3] (water, 75 °C, water, thermodynamic from solid, Water, 75° C., read-out: solubility), 2.24 µg/mL (≈ 4.94 µM); in data set [3] (water, thermodynamic from solid, Water, Ultrasonic, read-out: solubility), 4.63 µg/mL (≈ 10.2 µM). In addition, the Stability result in data set [4] (setting [18]), in data set [4] (Simulated gastric fluid (SGF)), in data set [4] (setting [19]), in data set [4] (Water), in data set [4] (setting [20]) and in data set [4] (setting [21]) was “Stable within” throughout. Also, the Stability entry in data set [4] (pH 6.8 PBS solution) is “Stable within”. Besides, the “solid-form stability, change of XRD after high humidity test” value in data set [1] was “barely no change”; in data set [1] (listed as Crystal form I) it was “stable”. For the same compound, the figures for the “solid-form stability, change of XRD after high temperature test” value in data set [2] and in data set [2] (listed as Crystal form I) were “barely no change” and “stable”, respectively. The “solid-form stability, change of XRD after accelerated stability test” value in data set [5] is “barely no change; also recorded: stable”.
Consider `COc1ncc(-c2ccc3ncc(C#N)c(N4CCOC[C@H]4C)c3c2)cc1NS(C)(=O)=O` [crystal form II, (R)-N-(5-(3-cyano-4-(3-methylmorpholinyl)quinolin-6-yl)-2-methoxypyridin-3-yl)methanesulfonamide], for which, in data set [1], the “solid-form stability, change of XRD after high humidity test” value is on record as “barely no change; also recorded: stable”. Further, the “solid-form stability, change of XRD after high temperature test” value in data set [2] is listed as “barely no change; also recorded: stable”. In data set [5], the “solid-form stability, change of XRD after accelerated stability test” value is “barely no change; also recorded: stable”.
`COc1ncc(-c2ccc3ncc(C#N)c(N4CCOC[C@H]4C)c3c2)cc1NS(C)(=O)=O` [crystal form IV, (R)-N-(5-(3-cyano-4-(3-methylmorpholinyl)quinolin-6-yl)-2-methoxypyridin-3-yl)methanesulfonamide]: the solubility was 4.70 µg/mL (≈ 10.4 µM) in data set [3] (Simulated fasting intestinal fluid (FaSSIF), 37° C.); 5.12 µg/mL (≈ 11.3 µM) in data set [3] (Simulated fasting intestinal fluid (FaSSIF), 75° C.); 6.05 µg/mL (≈ 13.3 µM) in data set [3] (setting [6]); 5.43 µg/mL (≈ 12 µM) in data set [3] (Simulated fasting intestinal fluid (FaSSIF), Ultrasonic); 655.37 µg/mL (≈ 1450 µM) in data set [3] (setting [7]); 766.58 µg/mL (≈ 1690 µM) in data set [3] (Simulated gastric fluid (SGF), 75° C.). Also, the solubility was 533.36 µg/mL (≈ 1180 µM) in data set [3] (setting [8]); 570.49 µg/mL (≈ 1260 µM) in data set [3] (setting [9]); 26.02 µg/mL (≈ 57.4 µM) in data set [3] (setting [10]); 28.48 µg/mL (≈ 62.8 µM) in data set [3] (Simulated postprandial intestinal fluid (FeSSIF), 75° C.); 31.70 µg/mL (≈ 69.9 µM) in data set [3] (setting [11]); 29.70 µg/mL (≈ 65.5 µM) in data set [3] (setting [12]). The solubility was 2.39 µg/mL (≈ 5.27 µM) in data set [3] (Water, 37° C.); 2.98 µg/mL (≈ 6.57 µM) in data set [3] (Water, 75° C.); 2.68 µg/mL (≈ 5.91 µM) in data set [3] (Water, R.T. (25° C.)); 2.96 µg/mL (≈ 6.53 µM) in data set [3] (Water, Ultrasonic); 1431.40 µg/mL (≈ 3160 µM) in data set [3] (setting [13]); 1516.50 µg/mL (≈ 3340 µM) in data set [3] (pH 1.2 hydrochloric acid solution, 75° C.). In addition, the solubility amounted to 1283.50 µg/mL (≈ 2830 µM) in data set [3] (setting [14]); 1289.40 µg/mL (≈ 2840 µM) in data set [3] (setting [15]); 3.04 µg/mL (≈ 6.7 µM) in data set [3] (pH 4.5 acetic acid-sodium acetate solution, 37° C.); 3.45 µg/mL (≈ 7.61 µM) in data set [3] (setting [16]); 2.75 µg/mL (≈ 6.06 µM) in data set [3] (setting [17]); 3.04 µg/mL (≈ 6.7 µM) in data set [3] (pH 4.5 acetic acid-sodium acetate solution, Ultrasonic). For the same compound, the solubility in data set [3] (pH 6.8 PBS solution, 37° C.) turned out to be 2.18 µg/mL (≈ 4.81 µM); in data set [3] (pH 6.8 PBS solution, 75° C.) it was 2.62 µg/mL (≈ 5.78 µM); in data set [3] (pH 6.8 PBS solution, R.T. (25° C.)), 2.12 µg/mL (≈ 4.67 µM); in data set [3] (pH 6.8 PBS solution, Ultrasonic) it was 2.48 µg/mL (≈ 5.47 µM). Also, the Stability entry in data set [4] (setting [18]), in data set [4] (Simulated gastric fluid (SGF)), in data set [4] (setting [19]), in data set [4] (Water), in data set [4] (setting [20]) and in data set [4] (setting [21]) was “Stable within” in each case. The Stability entry in data set [4] (pH 6.8 PBS solution) is on record as “Stable within”. The “solid-form stability, change of XRD after high humidity test” value in data set [1] is recorded as “barely no change; also recorded: stable”. Moreover, the “solid-form stability, change of XRD after high temperature test” value in data set [2] is recorded as “barely no change; also recorded: stable”. Besides, in data set [5], the “solid-form stability, change of XRD after accelerated stability test” value is “barely no change; also recorded: stable”.
